# Laboratory results published in patent US20150239831A1, “INHIBITORS OF CENTRAL NERVOUS SYSTEM VASOACTIVE INHIBITORY PEPTIDE RECEPTOR 2” (The Trustees Of Columbia University In The City Of New York, priority 2012, published 2015).
# Legend:
# Format in all cases: cell-based
# Parameters in all cases: expressed in transfected cells; host or cells: HEK293 cells transfected with VIPR2 in pCDNA3.1 (as described)
# [1] = target: T1, VIPR2 (Homo sapiens, UniProt P41587); test: Inhibition of VIP-induced β-arrestin recruitment (% Activity Arrestin)
# T1 sequence (P41587 24-438): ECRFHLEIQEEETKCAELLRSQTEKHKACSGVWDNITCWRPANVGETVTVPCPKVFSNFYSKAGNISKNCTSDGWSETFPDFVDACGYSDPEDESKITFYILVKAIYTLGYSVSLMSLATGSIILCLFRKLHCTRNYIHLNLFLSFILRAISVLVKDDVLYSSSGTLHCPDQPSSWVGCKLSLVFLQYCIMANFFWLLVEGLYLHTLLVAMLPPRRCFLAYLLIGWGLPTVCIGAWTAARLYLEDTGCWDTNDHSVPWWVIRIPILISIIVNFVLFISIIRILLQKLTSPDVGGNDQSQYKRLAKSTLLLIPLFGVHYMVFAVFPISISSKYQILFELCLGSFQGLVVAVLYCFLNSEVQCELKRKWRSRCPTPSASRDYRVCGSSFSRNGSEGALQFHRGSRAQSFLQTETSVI
# Procedure, shortened: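 Read-out is β-gal fragment complementation (luminescence) between ProLink-hVIPR2 and EA-β-arrestin2 in transiently transfected HEK293 cells. Cells rested overnight, then exposed to inhibitor 2 h at 37 °C before detection reagent (5 min–1 h, room temperature); values are % activity against VIP-driven recruitment.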
# [2] = target: T1, VIPR2; test: Inhibition of VIP-induced cAMP elevation (% Activity cAMP)
# Procedure, shortened: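 HEK293 cells stably transfected with human VIPR2 were incubated with inhibitor and VIP for 30 min, then cAMP was detected by HTRF after at least 1 h at room temperature. The 665/620 nm ratio ×10,000 was calculated.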
# [3] = target: T1, VIPR2; test: % Activity: inhibition of VIP-induced cAMP elevation and β-arrestin recruitment (Table 2)
# Procedure, shortened: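 Recruitment of β-arrestin measured by β-gal fragment complementation luminescence in HEK293 cells co-expressing VIPR2-ProLink and β-arrestin2-EA after 2 h compound at 37° C. VIP-driven cAMP rise in stable hVIPR2 HEK293 cells measured by HTRF after 30 min with inhibitor and VIP.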
SMILES,inhibition at 0.5 µM ([1]; Batch 3) [%],inhibition at 1 µM ([1]; Batch 3) [%],inhibition at 5 µM ([1]; Batch 3) [%],inhibition at 0.5 µM ([2]; Batch 3) [%],inhibition at 1 µM ([2]; Batch 3) [%],inhibition at 5 µM ([2]; Batch 3) [%],% Activity [3] [%],inhibition at 0.5 µM ([1]; Batch 1) [%],inhibition at 1 µM ([1]; Batch 1) [%],inhibition at 5 µM ([1]; Batch 1) [%],inhibition at 0.5 µM ([2]; Batch 1) [%],inhibition at 1 µM ([2]; Batch 1) [%],inhibition at 5 µM ([2]; Batch 1) [%]
O=C(NCc1ccccc1)c1ccc(S(=O)(=O)NC[C@@H](O)C[C@@H](Cc2ccccc2)C(=O)N[C@H]2c3ccccc3C[C@H]2O)cc1 [Compound X098],4.8,-2,-7.7,25,32.3,90.6,41.4,–,–,–,–,–,–
O=C(N[C@H]1c2ccccc2C[C@H]1O)[C@H](Cc1ccccc1)C[C@H](O)CNS(=O)(=O)c1ccc(C(=O)N2CCOCC2)cc1 [Compound X099],4.1,1.8,-5.4,-1.4,0.1,25.5,10.05,–,–,–,–,–,–
CCCCNC(=O)c1ccc(S(=O)(=O)NC[C@@H](O)C[C@@H](Cc2ccccc2)C(=O)N[C@H]2c3ccccc3C[C@H]2O)cc1 [Compound X100],-0.4,2.9,-5.5,-0.4,5.9,20.6,7.55,–,–,–,–,–,–
O=C(N[C@H]1c2ccccc2C[C@H]1O)[C@H](Cc1ccccc1)C[C@H](O)CNS(=O)(=O)c1ccc(C(=O)N2CCCCC2)cc1 [Compound X101],0,-17.3,-12.3,-6.3,-7.3,-1.4,−6.85,–,–,–,–,–,–
O=C(NC[C@@H](O)C[C@@H](Cc1ccccc1)C(=O)N[C@H]1c2ccccc2C[C@H]1O)c1c(Cl)cc(Cl)cc1Cl [D],–,–,–,–,–,–,21.9,23.9,25.3,31.5,17.6,14.8,12.3
O=C(NC[C@@H](O)C[C@@H](Cc1ccccc1)C(=O)N[C@H]1c2ccccc2C[C@H]1O)c1ccccc1[N+](=O)[O-] [G],–,–,–,–,–,–,17.6,36.4,35.1,26.1,17.6,14.3,9.1
COc1cc(C(=O)NC[C@@H](O)C[C@@H](Cc2ccccc2)C(=O)N[C@H]2c3ccccc3C[C@H]2O)cc(OC)c1OC [H],–,–,–,–,–,–,13.65,29.6,37.2,18,15.6,20,9.3
CC(C)c1cc(C(C)C)c(S(=O)(=O)NC[C@@H](O)C[C@@H](Cc2ccccc2)C(=O)N[C@H]2c3ccccc3C[C@H]2O)c(C(C)C)c1 [J],–,–,–,–,–,–,49.15,29.7,30.9,8.3,19.5,18.6,90
O=C(N[C@H]1c2ccccc2C[C@H]1O)[C@H](Cc1ccccc1)C[C@H](O)CNS(=O)(=O)c1cccc([N+](=O)[O-])c1 [L],–,–,–,–,–,–,27.35,24.2,35.1,33.4,18.4,15.2,21.3
O=C(NC[C@@H](O)C[C@@H](Cc1ccccc1)C(=O)N[C@H]1c2ccccc2C[C@H]1O)c1cccc([N+](=O)[O-])c1 [M],–,–,–,–,–,–,4.75,19.9,7.4,-4,11.8,11,13.5
Cc1ccc(S(=O)(=O)NC[C@@H](O)C[C@@H](Cc2ccccc2)C(=O)N[C@H]2c3ccccc3C[C@H]2O)c(C)c1 [N],–,–,–,–,–,–,27.55,2.8,20.3,31.8,14.1,10.9,23.3
O=C(NC[C@@H](O)C[C@@H](Cc1ccccc1)C(=O)N[C@H]1c2ccccc2C[C@H]1O)c1cccc(CCl)c1 [O],–,–,–,–,–,–,2.4,-8.1,5.7,-10.3,0.5,2.3,15.1
Cc1ccc([N+](=O)[O-])cc1S(=O)(=O)NC[C@@H](O)C[C@@H](Cc1ccccc1)C(=O)N[C@H]1c2ccccc2C[C@H]1O [P],–,–,–,–,–,–,8.85,-12,-3.8,-0.6,10.9,13.6,18.3
O=C(NC[C@@H](O)C[C@@H](Cc1ccccc1)C(=O)N[C@H]1c2ccccc2C[C@H]1O)c1cccc(Br)c1 [Q],–,–,–,–,–,–,12.75,-3.8,6.8,5.2,17.4,18.5,20.3
O=C(N[C@H]1c2ccccc2C[C@H]1O)[C@H](Cc1ccccc1)C[C@H](O)CNS(=O)(=O)c1ccccc1C(F)(F)F [R],–,–,–,–,–,–,22.85,10.7,24.8,21,23,18.8,24.7
COc1ccc(S(=O)(=O)NC[C@@H](O)C[C@@H](Cc2ccccc2)C(=O)N[C@H]2c3ccccc3C[C@H]2O)cc1OC [S],–,–,–,–,–,–,30.1,10.5,23.2,32,21.1,20.4,28.2
O=C(N[C@H]1c2ccccc2C[C@H]1O)[C@H](Cc1ccccc1)C[C@H](O)CNS(=O)(=O)c1ccccc1F [T],–,–,–,–,–,–,40.15,5.3,28.3,52,28.6,22.3,28.3
